Results: patent US11845763B2, “Tricarbonyl complexes of transition metals with benzo-heterocyclic derivatives of the cyclopentadienyl anion” (National Centre For Scientific Research “Demokritos”, priority 2018, dated 2023)
Read-outs that look alike come from different tables or passages of the source.

Columns and labels:
[1] = cited from earlier work
[2] = molecular target: Aβ aggregates; settings: literature value [45]; read-out: binding affinity to Aβ aggregates (Ki); cited from earlier work
[3] = Stability of 99mTc complexes under excess histidine or cysteine (HPLC); type: physicochemical; settings: percentage of intact complex by HPLC, PBS pH 7.4, 37° C.; for Stability, Cysteine, 1 h / Stability, Cysteine, 3 h / Stability, Cysteine, 6 h: excess cysteine; for Stability, Histidine, 1 h / Stability, Histidine, 3 h / Stability, Histidine, 6 h: excess histidine
Description: The stability of ^99mTc-2-^99mTc-4 complexes was assessed in the presence of excess histidine and cysteine which are capable of acting as tridentate substituents replacing the ligands of the complexes. Each of the HPLC-purified ^99mTc complex (0.5 mL, approx. 10 MBq) was mixed with a solution of histidine or cysteine (2 mM) in 0.1 M PBS, pH 7.4 (0.5 mL). The mixture was incubated at 37° C. and analyzed by HPLC after 1, 3, and 6 h. The recording of the percentage of the intact complexes in the presence of the antagonists at each time point of the study allows the estimation of the stability of the labeled ^99mTc complexes.

[4] = Lipophilicity, partition coefficient n-octanol/PBS; type: physicochemical
Description: The lipophilicity of ^99mTc-2-^99mTc-4 complexes was determined by the estimation of the partition coefficient in a biphasic system of n-octanol and water (PBS). The partition coefficient was expressed as the logarithm of the ratio of the counts per gram from n-octanol versus those from PBS (log Poct/water), where P is the ratio. The measurement was done in triplicate and repeated three times.

[5] = Blood-brain barrier permeability by biodistribution studies in mice; type: in vivo, Swiss Albino mice; settings: for Biodistribution of radioactivity, Blood / Biodistribution of radioactivity, Brain / Biodistribution of radioactivity, Heart / Biodistribution of radioactivity, Intestines / Biodistribution of radioactivity, Kidneys / Biodistribution of radioactivity, Liver / Biodistribution of radioactivity, Lungs / Biodistribution of radioactivity, Muscle / Biodistribution of radioactivity, Pancreas / Biodistribution of radioactivity, Spleen / Biodistribution of radioactivity, Stomach: tail vein injection, healthy Swiss Albino mice; for percentage of radioactivity in the brain: 2 min, Swiss Albino mice
Description: This evaluation was conducted through biodistribution studies in healthy Swiss Albino mice (5 weeks old, 20-30 g) that were obtained from the breeding facilities of the Institute of Biosciences & Applications, NCSR “Demokritos”. During these experiments we evaluate the distribution of radioactivity in the tissues of the animal after radiolabeled compound administration. For the credibility of the in vivo distribution data, three independent experiments are required for each evaluation, where in each experiment the animal population ranges between 9 and 12. The experiments of synthesis, labelling and biodistribution were carried out in the Laboratory of “Radiopharmaceuticals”, NCSR “Demokritos” that has the required infrastructure to ensure safe conduct of experiments using radioactivity. All the biodistribution studies were carried out in compliance with the Presidential Decree 56/2013 (published in the Official Government Gazette of Greece 106 A/30-4-2013) that has transposed the EU Directive 2010/63 on the protection of animals used for scientific purposes.
Three groups of mice (three animals per group) were injected in the tail vein with HPLC-purified ^99mTc complexes (1-2 μCi in 0.1 mL, ethanol/saline 1:9). The mice were sacrificed at various time points (2, 15, 90 min) post injection (p.i.). The organs of interest were excised, weighed, and the radioactivity counted in an automatic γ-counter. The stomach and intestines were not emptied of food contents prior to radioactivity measurements. The calculation for blood and muscle was based upon measured activity, sample weight, and body composition data, considering that blood comprises 7% and muscle 43% of body weight. The percentage of injected dose per organ (% ID/organ) was calculated by comparison of sample radioactivity to standard solutions that contained 10% of the injected dose. The percentage of injected dose per gram (% ID/g) was calculated by dividing the % ID/organ by the weight of the organ or tissue.
where cpm reference=(cpm 10% standard×10)−cpm tail.

[6] = molecular target: Aβ42 fibrillar aggregates (Homo sapiens, UniProt P05067); test: Competitive binding assay using Aβ42 fibrillar aggregates; settings: homologous competition, Re complex vs corresponding 99mTc complex, 50 nM Aβ42 fibrillar aggregates, 3 h room temperature
Aβ42 fibrillar aggregates, sequence (P05067 672-713 limits assumed): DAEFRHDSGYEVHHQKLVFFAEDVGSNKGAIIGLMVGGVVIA
Description: Competitive binding assay studies were performed in 1 mL solutions in PBS in 12 mm×75 mm borosilicate glass tubes according to a published procedure with modifications. […] The solutions were incubated for 3 h at room temperature and the bound and free radioactivity were separated by Millex-GV Syringe Filter Unit, 0.22 μm filters followed by 2×2 mL washes with PBS at room temperature. Filters containing the bound ^99mTc complexes were measured for radioactivity in a γ-counter. Binding studies were repeated in triplicate. The data were analyzed using GraphPad Prism software with the IC50 value calculated using a one-site competitive binding […] regression. The Ki value was calculated using the Cheng-Prousoff equation [44]: […]
In the case of homologous competitive binding we assume that the hot and cold ligand have identical affinities so that Kd and Ki have the same value. Thus the above equation is being transformed into: Ki=IC50−[Radioligand]

[7] = Brain uptake of literature 99mTc agents (cited); type: in vivo; settings: 2 min post administration, converted from % ID/organ

C/C(=N\[O-])[C@@H](C)[N-]CC(C)(C)C[N-][C@H](C)/C(C)=N/O.[O]=[99Tc+3] (racemic) [^99mTc-HMPAO, 99mTc-hexamethylpropyleneamineoxime]
brain penetration ([1]; 60 min post administration [39]): 5 % ID/gr

CN(C)c1ccc(-c2cn3cc(I)ccc3n2)cc1 [[^123I]IMPY]
Ki [2]: 12.5 ± 2.8 nM

[99Tc+].[C-]#[O+].[C-]#[O+].[C-]#[O+].c1ccc2[nH]c(-[c-]3cccc3)nc2c1 [^99mTc-3]
Stability, Cysteine, 1 h [3]: 98 ± 1 | Stability, Cysteine, 3 h [3]: 98 ± 1 | Stability, Cysteine, 6 h [3]: 97 ± 2 | Stability, Histidine, 1 h [3]: 98 ± 1 | Stability, Histidine, 3 h [3]: 98 ± 1 | Stability, Histidine, 6 h [3]: 97 ± 1 | Lipophilicity logPoct/water [4]: 1.84 ± 0.17 | Biodistribution of radioactivity, Blood ([5]; 2 min p.i.): 3.38 ± 0.67 % ID/gr | Biodistribution of radioactivity, Blood ([5]; 15 min p.i.): 1.86 ± 0.13 % ID/gr | Biodistribution of radioactivity, Blood ([5]; 90 min p.i.): 0.48 ± 0.12 % ID/gr | percentage of radioactivity in the brain [5]: 3.99±0.60 % ID/g | Biodistribution of radioactivity, Brain ([5]; 2 min p.i.): 3.99 ± 0.60 % ID/gr | Biodistribution of radioactivity, Brain ([5]; 15 min p.i.): 0.75 ± 0.11 % ID/gr | Biodistribution of radioactivity, Brain ([5]; 90 min p.i.): 0.04 ± 0.01 % ID/gr | Biodistribution of radioactivity, Heart ([5]; 2 min p.i.): 7.53 ± 1.28 % ID/gr | Biodistribution of radioactivity, Heart ([5]; 15 min p.i.): 1.95 ± 0.26 % ID/gr | Biodistribution of radioactivity, Heart ([5]; 90 min p.i.): 0.22 ± 0.05 % ID/gr | Biodistribution of radioactivity, Intestines ([5]; 2 min p.i.): 3.06 ± 0.08 % ID/gr | Biodistribution of radioactivity, Intestines ([5]; 15 min p.i.): 14.80 ± 0.25 % ID/gr | Biodistribution of radioactivity, Intestines ([5]; 90 min p.i.): 23.94 ± 4.27 % ID/gr | Biodistribution of radioactivity, Kidneys ([5]; 2 min p.i.): 9.70 ± 0.92 % ID/gr | Biodistribution of radioactivity, Kidneys ([5]; 15 min p.i.): 5.04 ± 0.53 % ID/gr | Biodistribution of radioactivity, Kidneys ([5]; 90 min p.i.): 1.57 ± 0.20 % ID/gr | Biodistribution of radioactivity, Liver ([5]; 2 min p.i.): 13.97 ± 2.13 % ID/gr | Biodistribution of radioactivity, Liver ([5]; 15 min p.i.): 30.66 ± 3.96 % ID/gr | Biodistribution of radioactivity, Liver ([5]; 90 min p.i.): 18.08 ± 1.34 % ID/gr | Biodistribution of radioactivity, Lungs ([5]; 2 min p.i.): 7.09 ± 0.38 % ID/gr | Biodistribution of radioactivity, Lungs ([5]; 15 min p.i.): 2.44 ± 0.39 % ID/gr | Biodistribution of radioactivity, Lungs ([5]; 90 min p.i.): 0.45 ± 0.13 % ID/gr | Biodistribution of radioactivity, Muscle ([5]; 2 min p.i.): 5.23 ± 0.79 % ID/gr | Biodistribution of radioactivity, Muscle ([5]; 15 min p.i.): 1.50 ± 0.19 % ID/gr | Biodistribution of radioactivity, Muscle ([5]; 90 min p.i.): 0.15 ± 0.03 % ID/gr | Biodistribution of radioactivity, Pancreas ([5]; 2 min p.i.): 5.99 ± 0.62 % ID/gr | Biodistribution of radioactivity, Pancreas ([5]; 15 min p.i.): 1.96 ± 0.25 % ID/gr | Biodistribution of radioactivity, Pancreas ([5]; 90 min p.i.): 0.21 ± 0.02 % ID/gr | Biodistribution of radioactivity, Spleen ([5]; 2 min p.i.): 2.63 ± 0.40 % ID/gr | Biodistribution of radioactivity, Spleen ([5]; 15 min p.i.): 1.01 ± 0.09 % ID/gr | Biodistribution of radioactivity, Spleen ([5]; 90 min p.i.): 0.17 ± 0.03 % ID/gr | Biodistribution of radioactivity, Stomach ([5]; 2 min p.i.): 1.63 ± 0.44 % ID/gr | Biodistribution of radioactivity, Stomach ([5]; 15 min p.i.): 3.17 ± 0.43 % ID/gr | Biodistribution of radioactivity, Stomach ([5]; 90 min p.i.): 4.63 ± 0.56 % ID/gr | Ki [6]: 7.04 ± 2.85 nM

Cn1c(-[c-]2cccc2)nc2ccccc21.[99Tc+].[C-]#[O+].[C-]#[O+].[C-]#[O+] [^99mTc-4]
Stability, Cysteine, 1 h [3]: 98 ± 1 | Stability, Cysteine, 3 h [3]: 95 ± 2 | Stability, Cysteine, 6 h [3]: 85 ± 1 | Stability, Histidine, 1 h [3]: 98 ± 1 | Stability, Histidine, 3 h [3]: 96 ± 1 | Stability, Histidine, 6 h [3]: 95 ± 1 | Lipophilicity logPoct/water [4]: 1.50 ± 0.12 | percentage of radioactivity in the brain [5]: 6.14±1.00 % ID/g | Ki [6]: 5.74 ± 2.9 nM

CCOC(=O)[C@H](C[S-])[N-]CCN[C@@H](C[S-])C(=O)OCC.[O-2].[Tc] [^99mTc-ECD, 99mTc-labelled ethylene dicysteine diethyl ester]
brain penetration [7]: approximately 4.4 % ID/gr | brain penetration ([1]; 2 min post administration [40]): 1.32 % ID/organ
